Experimental data from the supplement of paper PMC13380429.

Assays:
Settings in all cases: 72 h
U2OS [1] = experiment: relative viability EC50 (midpoint between 100% and the lowest measured viability); higher = less toxic
Caco-2 [2] = experiment: as above
HepG2 [3] = experiment: drug sensitivity score (DSS) for viability; higher = more toxic; extreme values may be limits of the assay
Vero E6 [4] = experiment: as above
U2OS [5] = experiment: as above
Calu-3 [6] = experiment: as above
Caco-2 [7] = experiment: as above
HepG2 [8] = experiment: cell viability relative to DMSO; higher = less toxic
Vero E6 [9] = experiment: as above
U2OS [10] = experiment: as above
Calu-3 [11] = experiment: as above
Caco-2 [12] = experiment: as above
HepG2 [13] = experiment: relative viability EC50 (midpoint between 100% and the lowest measured viability); higher = less toxic
Vero E6 [14] = experiment: as above
Calu-3 [15] = experiment: as above

| SMILES | relative viability EC50 (U2OS [1]) | relative viability EC50 (Caco-2 [2]) | drug sensitivity score (HepG2 [3]) | drug sensitivity score (Vero E6 [4]) | drug sensitivity score (U2OS [5]) | drug sensitivity score (Calu-3 [6]) | drug sensitivity score (Caco-2 [7]) | cell viability (HepG2 [8]; 1 nM) | cell viability (HepG2 [8]; 10 nM) | cell viability (HepG2 [8]; 100 nM) | cell viability (HepG2 [8]; 1000 nM) | cell viability (HepG2 [8]; 10000 nM) | cell viability (Vero E6 [9]; 1 nM) | cell viability (Vero E6 [9]; 10 nM) | cell viability (Vero E6 [9]; 100 nM) | cell viability (Vero E6 [9]; 1000 nM) | cell viability (Vero E6 [9]; 10000 nM) | cell viability (U2OS [10]; 1 nM) | cell viability (U2OS [10]; 10 nM) | cell viability (U2OS [10]; 100 nM) | cell viability (U2OS [10]; 1000 nM) | cell viability (U2OS [10]; 10000 nM) | cell viability (Calu-3 [11]; 1 nM) | cell viability (Calu-3 [11]; 10 nM) | cell viability (Calu-3 [11]; 100 nM) | cell viability (Calu-3 [11]; 1000 nM) | cell viability (Calu-3 [11]; 10000 nM) | cell viability (Caco-2 [12]; 1 nM) | cell viability (Caco-2 [12]; 10 nM) | cell viability (Caco-2 [12]; 100 nM) | cell viability (Caco-2 [12]; 1000 nM) | cell viability (Caco-2 [12]; 10000 nM) | relative viability EC50 (HepG2 [13]) | relative viability EC50 (Vero E6 [14]) | relative viability EC50 (Calu-3 [15]) |
| --- | --- | --- | --- | --- | --- | --- | --- | --- | --- | --- | --- | --- | --- | --- | --- | --- | --- | --- | --- | --- | --- | --- | --- | --- | --- | --- | --- | --- | --- | --- | --- | --- | --- | --- | --- |
| CN(C)CCCN1c2ccccc2Sc2ccc(Cl)cc21 [chlorpromazine] | > 10000 nM | > 10 µM | 3.9 | 2.2 | 0.1 | 0.9 | 0 | 96.5% | 102% | 105% | 91.3% | 52.4% | 98.5% | 98.8% | 97.4% | 99.6% | 56.9% | 98.9% | 100% | 93.6% | 102% | 86.2% | 110% | 97% | 109% | 102% | 73.8% | 96.3% | 97.3% | 96.5% | 105% | 88.9% |  |  |  |
| Cc1cc(F)c(Nc2ncnc3cc(OCc4ccccc4)ccc23)cc1O |  |  | 0.2 | 0.7 | 0.9 | 0.6 | 4 | 105% | 95.5% | 106% | 100% | 85.5% | 99.9% | 103% | 99.3% | 96.2% | 84% | 97.9% | 101% | 96.8% | 102% | 72.9% | 104% | 95.1% | 89.4% | 104% | 76.9% | 101% | 96.6% | 88.4% | 79.4% | 74% | > 10 µM | > 10000 nM | > 10 µM |
| NC(=O)N1c2ccccc2CC(=O)c2ccccc21 [oxcarbazepine] | > 10000 nM |  | 0.5 |  | 0 | 0 |  | 90.8% | 92.3% | 115% | 90.7% | 87.5% |  |  |  |  |  | 101% | 100% | 101% | 96.7% | 99.1% | 96.1% | 93.6% | 82.6% | 105% | 95.1% |  |  |  |  |  | > 10 µM |  | > 10 µM |
| COC(=O)c1ccc(O)cc1 [methylparaben] |  |  | 0 | 0 | 0 | 0 |  |  |  |  |  |  |  |  |  |  |  |  |  |  |  |  |  |  |  |  |  |  |  |  |  |  |  |  |  |
| CCn1c(=O)c(-c2ccc(Cl)cc2Cl)cc2cnc(Nc3ccc(N4CCNCC4)c(F)c3)nc21 [FRAX486] | 2010 nM |  | 2.6 | 5.3 | 4.5 | 0 | 3.9 | 96.6% | 97.8% | 93.1% | 99.3% | 51.6% | 97% | 102% | 99.6% | 90.9% | 31.7% | 103% | 99.8% | 101% | 91.6% | 43% | 104% | 100% | 105% | 91.9% | 97.9% | 94.9% | 92.4% | 97.7% | 80% | 63.4% |  | 2090 nM | > 10 µM |
| CC(O)(CS(=O)(=O)c1ccc(F)cc1)C(=O)Nc1ccc(C#N)c(C(F)(F)F)c1 (configuration not stated) [bicalutamide] |  |  | 0 | 0 | 0 | 0 |  |  |  |  |  |  |  |  |  |  |  |  |  |  |  |  |  |  |  |  |  |  |  |  |  |  |  |  |  |
| CC[C@H](CO)Nc1nc(NCc2ccccc2)c2ncn(C(C)C)c2n1 [roscovitine] |  |  | 0 | 0 | 0 | 0 |  |  |  |  |  |  |  |  |  |  |  |  |  |  |  |  |  |  |  |  |  |  |  |  |  |  |  |  |  |
| Cc1cc([N+](=O)[O-])ccc1NS(=O)(=O)c1cc(Cl)ccc1Cl [FH-535] | > 10000 nM |  | 3.1 | 0.9 | 0 | 0 | 3.8 | 100% | 106% | 94.5% | 96.7% | 50.1% | 98.3% | 102% | 94.1% | 92.8% | 79.2% | 101% | 97.6% | 93.3% | 96.9% | 89.5% | 104% | 92.4% | 105% | 101% | 93.2% | 107% | 103% | 110% | 87.2% | 60.3% |  | > 10000 nM | > 10 µM |
| COc1cc2c(cc1-c1c(C)noc1C)ncc1[nH]c(=O)n([C@H](C)c3ccccn3)c12 [I-BET151] | 890 nM |  | 8.6 | 12.2 | 6.3 | 4.5 | 4.9 | 104% | 99.7% | 91.9% | 60.3% | 33.6% | 104% | 105% | 94.6% | 40.5% | 13% | 97.4% | 95.6% | 94.4% | 71.3% | 44.3% | 97.4% | 99.5% | 114% | 75% | 65.3% | 104% | 87.1% | 89.8% | 81% | 56% | 0.671 µM | 607 nM |  |
